Structures are written as SMILES.

Experimental findings from US20110092476A1, “Bicycloheteroaryl compounds as P2X7 modulators and uses thereof” (Renovis, Inc., priority 2006, published 2011) are described below.

In the first assay the target is T1, P2X7 receptor (Homo sapiens, UniProt Q99572).
T1 construct: host or cells: THP-1 cells differentiated with LPS and IFN-γ
T1 sequence (Q99572 1-595): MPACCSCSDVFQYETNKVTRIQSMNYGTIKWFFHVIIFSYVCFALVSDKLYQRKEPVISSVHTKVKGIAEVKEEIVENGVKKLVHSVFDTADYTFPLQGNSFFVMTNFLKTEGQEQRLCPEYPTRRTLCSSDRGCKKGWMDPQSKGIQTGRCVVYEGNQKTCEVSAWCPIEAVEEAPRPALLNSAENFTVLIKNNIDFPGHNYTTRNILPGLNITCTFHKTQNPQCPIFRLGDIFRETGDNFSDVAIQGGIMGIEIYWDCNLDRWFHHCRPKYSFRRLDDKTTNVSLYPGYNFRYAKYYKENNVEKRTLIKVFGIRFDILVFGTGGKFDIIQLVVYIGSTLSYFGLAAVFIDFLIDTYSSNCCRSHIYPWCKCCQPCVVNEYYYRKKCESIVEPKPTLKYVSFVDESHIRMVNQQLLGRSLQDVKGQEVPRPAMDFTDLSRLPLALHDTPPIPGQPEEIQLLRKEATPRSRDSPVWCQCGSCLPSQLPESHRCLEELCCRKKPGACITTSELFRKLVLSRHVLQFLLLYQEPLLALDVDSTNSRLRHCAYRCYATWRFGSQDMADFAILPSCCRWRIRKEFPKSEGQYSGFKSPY
The experiment in a line: IL-1β release assay in differentiated THP-1 cells stimulated with BzATP (Example 9). The assay is classed as cell-based. The conditions noted are these: 0.1 μM compound (symbols *); differentiated THP-1 cells, BzATP 250 uM; read-out: IL-1β % Inhib. @ 0.3 or 0.1 uM. The protocol:
THP-1 cells (ATCC Cat #285-IF-100) are plated in 96 well plates at a concentration of 200,000 cells per well and allowed to differentiate in RPMI-1640 media (ATCC Cat #30-2001) containing 10% FBS, 100 IU/mL penicillin, 100 ug/mL streptomycin, 100 ng/mL LPS and 100 ng/mL IFN-γ for 16 hours. Following differentiation, the cells are treated for an additional 2 hours in RPMI-1640 media containing 100 IU/mL penicillin, 100 ug/mL streptomycin and fresh LPS at 100 ng/mL. The cells are then pretreated for 30 minutes with the compound of interest at the appropriate concentration in RPMI media containing 100 IU/mL penicillin, 100 ug/mL streptomycin. Following the pretreatment 2′,3′-O-(4-benzoylbenzoyl)-adenosine 5′-triphosphate (Sigma Aldrich Cat #B6396) is added to a final concentration of 250 uM and the cells are incubated for an additional 45 minutes. 30 uL of cell supernatant is then collected and IL-1β levels determined via ELISA (R&D systems Cat. #HSLB50) according to manufacturer's recommendations using the Tecan Safire plate reader. Background adjusted IL-1β levels of drug treated and non-treated cells are used to calculate the percent inhibition.
The compounds set forth in Table 1 were tested for activity in a cellular model as described herein. Specifically, cells were pretreated with differing amounts of the compound under test and released IL-1β determined as in Example 9, above. Measurements were made and IC50 values, presented in Table 2, below, were determined by fitting the data to a four parameter logistic equation using GraphPad Prism software (GraphPad Software, Inc). The equation may be expressed by the following formula:
Y=Bottom+(Top−Bottom)/(1+10̂((Log EC50−X)*HillSlope))
Where X is the logarithm of concentration, Y is the response and Y starts at Bottom and goes to Top with a sigmoid shape.
With `COc1ccc(C(=O)Nc2cccc3c(=O)n(CC4(O)CCCCC4)ccc23)c(C)c1` [Compound 83], the inhibition at 0.1 µM fell in the range of 0 to 25%.

Take `Cc1ccccc1CCC(=O)Nc1cccc2c(=O)n(CC3(O)CCCCC3)ccc12` [Compound 84]: the inhibition at 0.1 µM fell in the range of 0 to 25%.

On to `Cc1cccc(C(=O)Nc2cccc3c(=O)n(CC4(O)CCCCC4)ccc23)c1C` [Compound 85], for which the inhibition at 0.1 µM was in the range of 0 to 25%.

Regarding `Cc1ccc(C(=O)Nc2cccc3c(=O)n(CC4(O)CCCCC4)ccc23)c(C)c1` [Compound 86], the inhibition at 0.1 µM fell in the range of 0 to 25%.

As to `COc1ccccc1CCC(=O)Nc1cccc2c(=O)n(CC3(O)CCCCC3)ccc12` [Compound 87], the inhibition at 0.1 µM was in the range of 0 to 25%.

Consider `O=C(Cc1ccccc1Cl)Nc1cccc2c(=O)n(CC3(O)CCCCC3)ccc12` [Compound 88], for which the inhibition at 0.1 µM lay within 0 to 25%.

For `Cc1ccccc1CC(=O)Nc1cccc2c(=O)n(CC3(O)CCCCC3)ccc12` [Compound 89], the inhibition at 0.1 µM lay in the range of 0 to 25%.

`Cc1ccccc1CCC(=O)Nc1cccc2c(=O)n(C(C)CO)ccc12` (stereo not shown) [Compound 90]: the inhibition at 0.1 µM was 26 to 50%.

`COc1cccc(CCC(=O)Nc2cccc3c(=O)n(C(C)CO)ccc23)c1` (stereo not shown) [Compound 91]: the inhibition at 0.1 µM was in the range of 0 to 25%.

On to `COc1ccc(C(=O)Nc2cccc3c(=O)n(C(C)CO)ccc23)cc1Cl` (stereo not shown) [Compound 92], for which the inhibition at 0.1 µM was in the range of 0 to 25%.

Turning to `CCOc1cccc(C(=O)Nc2cccc3c(=O)n(C(C)CO)ccc23)c1` (stereo not shown) [Compound 93], the inhibition at 0.1 µM lay within 0 to 25%.

In the case of `CC(CO)n1ccc2c(NC(=O)CCc3ccc4c(c3)OCO4)cccc2c1=O` (stereo not shown) [Compound 94], the inhibition at 0.1 µM fell in the range of 0 to 25%.

As to `CC(CO)n1ccc2c(NC(=O)c3ccccc3Cl)cccc2c1=O` (stereo not shown) [Compound 95], the inhibition at 0.1 µM was in the range of 0 to 25%.

For the molecule `CC(CO)n1ccc2c(NC(=O)c3ccc(Cl)cc3Cl)cccc2c1=O` (stereo not shown) [Compound 96], the inhibition at 0.1 µM was in the range of 0 to 25%.

With `CC(CO)n1ccc2c(NC(=O)c3cc(Cl)ccc3Cl)cccc2c1=O` (stereo not shown) [Compound 97], the inhibition at 0.1 µM fell in the range of 0 to 25%.

As for `Cc1cccc(C(=O)Nc2cccc3c(=O)n(C(C)CO)ccc23)c1C` (stereo not shown) [Compound 98], the inhibition at 0.1 µM was 0 to 25%.

Consider `Cc1ccc(C(=O)Nc2cccc3c(=O)n(C(C)CO)ccc23)c(C)c1` (stereo not shown) [Compound 99], for which the inhibition at 0.1 µM was 0 to 25%.

For `Cc1ccc(C)c(C(=O)Nc2cccc3c(=O)n(C(C)CO)ccc23)c1` (stereo not shown) [Compound 100], the inhibition at 0.1 µM lay within 0 to 25%.

Turning to `CCOc1ccc(C(=O)Nc2cccc3c(=O)n(C(C)CO)ccc23)cc1` (stereo not shown) [Compound 101], the inhibition at 0.1 µM is 0 to 25%.

On to `CC(CO)n1ccc2c(NC(=O)c3ccc(-c4ccccc4)cc3)cccc2c1=O` (stereo not shown) [Compound 102], for which the inhibition at 0.1 µM lay within 0 to 25%.

`CC(C(=O)Nc1cccc2c(=O)n(C(C)CO)ccc12)c1ccccc1` (stereo not shown) [Compound 103]: the inhibition at 0.1 µM is 0 to 25%.

With `COc1ccccc1CCC(=O)Nc1cccc2c(=O)n(C(C)CO)ccc12` (stereo not shown) [Compound 104], the inhibition at 0.1 µM lay within 0 to 25%.

For `COc1ccc(CCC(=O)Nc2cccc3c(=O)n(C(C)CO)ccc23)cc1` (stereo not shown) [Compound 105], the inhibition at 0.1 µM is 0 to 25%.

Consider `CC(CO)n1ccc2c(NC(=O)c3cccc4ccccc34)cccc2c1=O` (stereo not shown) [Compound 106], for which the inhibition at 0.1 µM was in the range of 0 to 25%.

`COc1ccccc1CC(=O)Nc1cccc2c(=O)n(C(C)CO)ccc12` (stereo not shown) [Compound 107]: the inhibition at 0.1 µM lay in the range of 0 to 25%.

For `COc1ccc(OC)c(CC(=O)Nc2cccc3c(=O)n(C(C)CO)ccc23)c1` (stereo not shown) [Compound 108], the inhibition at 0.1 µM is 0 to 25%.

As to `COc1ccc(CC(=O)Nc2cccc3c(=O)n(C(C)CO)ccc23)cc1OC` (stereo not shown) [Compound 109], the inhibition at 0.1 µM fell in the range of 0 to 25%.

Turning to `COc1ccc(CC(=O)Nc2cccc3c(=O)n(C(C)CO)ccc23)cc1` (stereo not shown) [Compound 110], the inhibition at 0.1 µM lay in the range of 0 to 25%.

As for `CC(CO)n1ccc2c(NC(=O)CCCc3ccccc3)cccc2c1=O` (stereo not shown) [Compound 111], the inhibition at 0.1 µM was 0 to 25%.

Take `CC(CO)n1ccc2c(NC(=O)c3cc4ccccc4o3)cccc2c1=O` (stereo not shown) [Compound 112]: the inhibition at 0.1 µM lay in the range of 0 to 25%.

As for `CC(CO)n1ccc2c(NC(=O)Cc3ccc4c(c3)OCO4)cccc2c1=O` (stereo not shown) [Compound 113], the inhibition at 0.1 µM was in the range of 0 to 25%.

Turning to `COc1cc(CC(=O)Nc2cccc3c(=O)n(C(C)CO)ccc23)cc(OC)c1` (stereo not shown) [Compound 114], the inhibition at 0.1 µM lay within 0 to 25%.

For `Cc1ccc(C(=O)Nc2cccc3c(=O)n(C(C)CO)ccc23)cc1Cl` (stereo not shown) [Compound 115], the inhibition at 0.1 µM lay within 0 to 25%.

As for `CC(CO)n1ccc2c(NC(=O)c3cccc4c3OCCO4)cccc2c1=O` (stereo not shown) [Compound 116], the inhibition at 0.1 µM is 0 to 25%.

`CC(CO)n1ccc2c(NC(=O)c3ccc4c(c3)OCCCO4)cccc2c1=O` (stereo not shown) [Compound 117]: the inhibition at 0.1 µM was 0 to 25%.

Regarding `Cc1c(Cl)cccc1C(=O)Nc1cccc2c(=O)n(C(C)CO)ccc12` (stereo not shown) [Compound 118], the inhibition at 0.1 µM fell in the range of 26 to 50%.

With `Cc1cc(C)cc(CC(=O)Nc2cccc3c(=O)n(C(C)CO)ccc23)c1` (stereo not shown) [Compound 119], the inhibition at 0.1 µM was in the range of 0 to 25%.

`COc1ccc(CC(=O)Nc2cccc3c(=O)n(C(C)CO)ccc23)c(OC)c1` (stereo not shown) [Compound 120]: the inhibition at 0.1 µM was 0 to 25%.

Regarding `Cc1ccc(Cl)c(C(=O)Nc2cccc3c(=O)n(C(C)CO)ccc23)c1` (stereo not shown) [Compound 121], the inhibition at 0.1 µM lay within 0 to 25%.

Consider `Cc1ccc(Cl)cc1C(=O)Nc1cccc2c(=O)n(C(C)CO)ccc12` (stereo not shown) [Compound 122], for which the inhibition at 0.1 µM lay within 0 to 25%.

Take `COc1ccc(C(=O)Nc2cccc3c(=O)n(C(C)CO)ccc23)cc1C` (stereo not shown) [Compound 123]: the inhibition at 0.1 µM was in the range of 0 to 25%.

As for `CCOc1ccc(C(=O)Nc2cccc3c(=O)n(CC(C)O)ccc23)c(O)c1` (stereo not shown) [Compound 124], the inhibition at 0.1 µM was 0 to 25%.

On to `COc1ccc(C(=O)Nc2cccc3c(=O)n(CC(C)O)ccc23)c(C)c1` (stereo not shown) [Compound 125], for which the inhibition at 0.1 µM lay within 0 to 25%.

For the molecule `Cc1ccccc1CCC(=O)Nc1cccc2c(=O)n(CC(C)O)ccc12` (stereo not shown) [Compound 126], the inhibition at 0.1 µM was in the range of 26 to 50%.

For `CC(O)Cn1ccc2c(NC(=O)c3ccc(-c4ccccc4)o3)cccc2c1=O` (stereo not shown) [Compound 127], the inhibition at 0.1 µM is 0 to 25%.

Regarding `COc1cccc(CCC(=O)Nc2cccc3c(=O)n(CC(C)O)ccc23)c1` (stereo not shown) [Compound 128], the inhibition at 0.1 µM lay within 0 to 25%.

With `Cc1cc(C)c(CC(=O)Nc2cccc3c(=O)n(CC(C)O)ccc23)c(C)c1` (stereo not shown) [Compound 129], the inhibition at 0.1 µM lay in the range of 0 to 25%.

As for `Cc1ccc(C)c(CC(=O)Nc2cccc3c(=O)n(CC(C)O)ccc23)c1` (stereo not shown) [Compound 130], the inhibition at 0.1 µM fell in the range of 26 to 50%.

Take `COc1ccc(C(=O)Nc2cccc3c(=O)n(CC(C)O)ccc23)cc1Cl` (stereo not shown) [Compound 131]: the inhibition at 0.1 µM was in the range of 0 to 25%.

Staying with this assay, now noted: 0.3 μM compound (symbols +); differentiated THP-1 cells, BzATP 250 uM; read-out: IL-1β % Inhib. @ 0.3 or 0.1 uM.
Turning to `O=C(Cc1ccccc1)Nc1cccc2c(=O)n(CCO)ccc12` [Compound 76], the inhibition at 0.3 µM was in the range of 0 to 25%.

As to `COc1ccc(OC)c(CC(=O)Nc2cccc3c(=O)n(CCO)ccc23)c1` [Compound 77], the inhibition at 0.3 µM lay in the range of 0 to 25%.

For `CC(C)C(C(=O)Nc1cccc2c(=O)n(CCO)ccc12)c1ccc(Cl)cc1` (stereo not shown) [Compound 78], the inhibition at 0.3 µM fell in the range of 0 to 25%.

Turning to `O=C(Nc1cccc2c(=O)n(CCO)ccc12)C1(c2ccc(Cl)cc2)CCCC1` [Compound 79], the inhibition at 0.3 µM is 0 to 25%.

Take `O=C(Cc1ccc(Cl)cc1Cl)Nc1cccc2c(=O)n(C(CO)CO)ccc12` [Compound 82]: the inhibition at 0.3 µM lay within 51 to 75%.

The same assay, now with this note: THP-1 cells, BzATP 250 uM, IL-1β by ELISA.
What is called IC50 is the midpoint of a concentration-inhibition curve. Low values mean higher potency, high ones lower potency. Regarding `O=C(Nc1cccc2c(=O)n(CCO)ccc12)C1(c2ccc(Cl)cc2)CCCC1` [Compound 79], the IC50 was > 1000 nM.
